Reference: US12391676B2 (H. LEE MOFFITT CANCER CENTER AND RESEARCH INSTITUTE, INC., priority 2018, dated 2025)

These compounds were tested on MM1.S cells (assay: Antiproliferative activity, MM1.S cells). Conditions: Homo sapiens, Table 2, read-out: GI50 (MM1S).
Type: cell-based
Protocol: Cellular activity of promising compounds is assessed using MM.1S and MV4-11 AML cells using c-Myc levels as biomarker (6-12 hr treatment) and antiproliferative activity (48-72 hr treatment) as described (Ciceri et al., Dual kinase-bromodomain inhibitors for rationally designed polypharmacology. Nat Chem Biol 2014).

| Compound | GI50 |
| --- | --- |
| CN1CCC(c2ccc(Nc3ncc(C(N)=O)c(Nc4ccc(Cl)c(NS(=O)(=O)C(C)(C)C)c4)n3)cc2F)CC1 [PN1-134, 4-((4-Chloro-3-((1,1-dimethylethyl)sulfonamido)phenyl)amino)-2-((3-fluoro-4-(1-methylpiperidin-4-yl)phenyl)amino)pyrimidine-5-carboxamide] | 0.58 µM |
| Cc1cnc(Nc2ccc(C3CCN(C)CC3)c(F)n2)nc1Nc1cccc(NS(=O)(=O)C(C)(C)C)c1 [PN2-117, N-(3-((2-((6-Fluoro-5-(1-methylpiperidin-4-yl)pyridin-2-yl)amino)-5-methylpyrimidin-4-yl)amino)phenyl)-2-methylpropane-2-sulfonamide] | 0.153 µM |
| Cc1cnc(Nc2ccc(C3CCN(C)CC3)c(F)c2)cc1Nc1ccc2c(c1)N(S(=O)(=O)C(C)(C)C)CC2 [MA9-064, N4-(1-(Tert-butylsulfonyl)indolin-6-yl)-N2-(3-fluoro-4-(1-methylpiperidin-4-yl)phenyl)-5-methylpyridine-2,4-diamine] | 1.6 µM |
| Cc1cnc(Nc2ccc(C3CCN(C)CC3)c(F)n2)nc1Nc1ccc(Cl)c(NS(=O)(=O)C(C)(C)C)c1 [PN2-102, N-(2-Chloro-5-((2-((6-fluoro-5-(1-methylpiperidin-4-yl)pyridin-2-yl)amino)-5-methylpyrimidin-4-yl)amino)phenyl)-2-methylpropane-2-sulfonamide] | 0.109 µM |
| Cc1cnc(Nc2cc(F)c(C3CCN(C)CC3)cc2F)nc1Nc1ccc(Cl)c(NS(=O)(=O)C(C)(C)C)c1 [PN1-102, N-(2-Chloro-5-((2-((2,5-difluoro-4-(1-methylpiperidin-4-yl)phenyl)amino)-5-methylpyrimidin-4-yl)amino)phenyl)-2-methylpropane-2-sulfonamide] | 0.32 µM |
| Cc1cnc(Nc2cc(F)c(C3CCN(C)CC3)c(F)c2)nc1Nc1ccc(Cl)c(NS(=O)(=O)C(C)(C)C)c1 [PN2-122, N-(2-Chloro-5-((2-((3,5-difluoro-4-(1-methylpiperidin-4-yl)phenyl)amino)-5-methylpyrimidin-4-yl)amino)phenyl)-2-methylpropane-2-sulfonamide] | 0.093 µM |
| Cc1cnc(Nc2ccc(N3CCN(C)CC3)c(F)c2)cc1Nc1ccc(Cl)c(NS(=O)(=O)C(C)(C)C)c1 [MA9-036, N-(2-Chloro-5-((2-((3-fluoro-4-(4-methylpiperazin-1-yl)phenyl)amino)-5-methylpyridin-4-yl)amino)phenyl)-2-methylpropane-2-sulfonamide] | 3.12 µM |
| Cc1cc(Nc2ncc(C)c(Nc3ccc(Cl)c(NS(=O)(=O)C(C)(C)C)c3)n2)c(F)cc1C1CCN(C)CC1 [PN1-119, N-(2-Chloro-5-((2-((2-fluoro-5-methyl-4-(1-methylpiperidin-4-yl)phenyl)amino)-5-methylpyrimidin-4-yl)amino)phenyl)-2-methylpropane-2-sulfonamide] | 0.39 µM |
| Cc1cnc(Nc2cc(F)c(N3CCN(C)CC3)c(F)c2)cc1Nc1ccc(Cl)c(NS(=O)(=O)C(C)(C)C)c1 [MA9-037, N-(2-Chloro-5-((2-((3,5-difluoro-4-(4-methylpiperazin-1-yl)phenyl)amino)-5-methylpyridin-4-yl)amino)phenyl)-2-methylpropane-2-sulfonamide·bisformate] | 2.83 µM |

What follows are compounds tested against BRD4 (Homo sapiens (Human), UniProt O60885) (assay: BRD4 DSF thermal shift (ΔTm)). Conditions: Table 1.
Type: binding

| Compound | DSF ΔTm |
| --- | --- |
| Cc1cnc(Nc2ccc(OCCN3CCCC3)c(F)c2)nc1Nc1ccc(Cl)c(NS(=O)(=O)C(C)(C)C)c1 | 15.1 ± 0.1 °C |
| CN1CCC(c2ccc(Nc3ncc(C(F)(F)F)c(Nc4ccc(Cl)c(NS(=O)(=O)C(C)(C)C)c4)n3)cc2F)CC1 | 10.4 ± 0.1 °C |
| Cc1cnc(Nc2ccc(OCCN3CCCC3)cc2)nc1Nc1ccc(Cl)c(NS(=O)(=O)C(C)(C)C)c1 | 12.9 ± 0.1 °C |
| Cc1cnc(Nc2ccc(C3CCN(C)CC3)c(F)c2)cc1Nc1ccc2c(c1)N(S(=O)(=O)C(C)(C)C)CC2 [drawing 16] | 8.9 ± 0.2 °C |
| Cc1cnc(Nc2ccc(OCCN3CCCC3)c(F)c2)nc1Nc1cccc(NS(=O)(=O)C(C)(C)C)c1 | 12.6 ± 0.1 °C |
| CN1CCN(c2ccc(Nc3ncc(F)c(Nc4ccc(Cl)c(NS(=O)(=O)C(C)(C)C)c4)n3)cc2)CC1 | 9.6 ± 0.9 °C |

Same assay, conditions: Table 2

| Compound | BRD4 DSF (ΔTm) |
| --- | --- |
| Cc1cnc(Nc2ccc(C3CCN(C)CC3)cn2)nc1Nc1ccc(Cl)c(NS(=O)(=O)C(C)(C)C)c1 [PN2-081, N-(2-Chloro-5-((5-methyl-2-((5-(1-methylpiperidin-4-yl)pyridin-2-yl)amino)pyrimidin-4-yl)amino)phenyl)-2-methylpropane-2-sulfonamide] | 12.3 °C |
| Cc1cnc(Nc2ccc(N3CCN(C)CC3)c(F)c2)cc1Nc1ccc2c(c1)N(S(=O)(=O)C(C)(C)C)CC2 [MA9-042, N^4-(1-(tert-Butylsulfonyl)indolin-6-yl)-N^2-(3-fluoro-4-(4-methylpiperazin-1-yl)phenyl)-5-methylpyridine-2,4-diamine] | 6.1 °C |
| CN1CCC(c2ccc(Nc3ncc(C(N)=O)c(Nc4ccc(Cl)c(NS(=O)(=O)C(C)(C)C)c4)n3)cc2F)CC1 [PN1-134, 4-((4-Chloro-3-((1,1-dimethylethyl)sulfonamido)phenyl)amino)-2-((3-fluoro-4-(1-methylpiperidin-4-yl)phenyl)amino)pyrimidine-5-carboxamide] | 13.7 °C |
| Cc1cnc(Nc2ccc(C3CCN(C)CC3)c(F)n2)nc1Nc1cccc(NS(=O)(=O)C(C)(C)C)c1 [PN2-117, N-(3-((2-((6-Fluoro-5-(1-methylpiperidin-4-yl)pyridin-2-yl)amino)-5-methylpyrimidin-4-yl)amino)phenyl)-2-methylpropane-2-sulfonamide] | 11.0 °C |
| Cc1cnc(Nc2ccc(C3CCN(C)CC3)c(F)c2)cc1Nc1ccc2c(c1)N(S(=O)(=O)C(C)(C)C)CC2 [MA9-064, N4-(1-(Tert-butylsulfonyl)indolin-6-yl)-N2-(3-fluoro-4-(1-methylpiperidin-4-yl)phenyl)-5-methylpyridine-2,4-diamine] | 8.2 °C |
| Cc1cnc(Nc2ccc(C3CCN(C)CC3)c(F)n2)nc1Nc1ccc(Cl)c(NS(=O)(=O)C(C)(C)C)c1 [PN2-102, N-(2-Chloro-5-((2-((6-fluoro-5-(1-methylpiperidin-4-yl)pyridin-2-yl)amino)-5-methylpyrimidin-4-yl)amino)phenyl)-2-methylpropane-2-sulfonamide] | 13.0 °C |
| Cc1cnc(Nc2cc(F)c(C3CCNCC3)cn2)nc1Nc1ccc(Cl)c(NS(=O)(=O)C(C)(C)C)c1.Cl [PN2-084, N-(2-Chloro-5-((2-((4-fluoro-5-(piperidin-4-yl)pyridin-2-yl)amino)-5-methylpyrimidin-4-yl)amino)phenyl)-2-methylpropane-2-sulfonamide hydrochloride] | 14.5 °C |
| Cc1cnc(Nc2cc(F)c(C3CCN(C)CC3)cc2F)nc1Nc1ccc(Cl)c(NS(=O)(=O)C(C)(C)C)c1 [PN1-102, N-(2-Chloro-5-((2-((2,5-difluoro-4-(1-methylpiperidin-4-yl)phenyl)amino)-5-methylpyrimidin-4-yl)amino)phenyl)-2-methylpropane-2-sulfonamide] | 11.4 °C |
| Cc1cnc(Nc2ccc(C3CCN(C)CC3)c(F)c2)nc1Nc1cc(NS(=O)(=O)C(C)(C)C)ncn1 [MA10-174, N-(6-((2-((3-fluoro-4-(1-methylpiperidin-4-yl)phenyl)amino)-5-methylpyrimidin-4yl)amino)pyrimidin-4-yl)-2-methylpropane-2-sulfonamide] | 0.9 °C |
| Cc1cnc(Nc2cc(F)c(C3CCN(C)CC3)c(F)c2)nc1Nc1ccc(Cl)c(NS(=O)(=O)C(C)(C)C)c1 [PN2-122, N-(2-Chloro-5-((2-((3,5-difluoro-4-(1-methylpiperidin-4-yl)phenyl)amino)-5-methylpyrimidin-4-yl)amino)phenyl)-2-methylpropane-2-sulfonamide] | 15.2 °C |
| Cc1cnc(Nc2cc(F)c(C3CCN(C)CC3)c(F)c2)nc1Nc1cc(NS(=O)(=O)C(C)(C)C)ncn1 [MA11-009, N-(6-((2-((3,5-difluoro-4-(1-methylpiperidin-4-yl)phenyl)amino)-5-methylpyrimidin-4-yl)amino)pyrimidin-4-yl)-2-methylpropane-2-sulfonamide] | 1.1 °C |
| Cc1cnc(Nc2ccc(OCCN3CCCC3)cc2)nc1Nc1cc(NS(=O)(=O)C(C)(C)C)ncn1 | 1.1 °C |
| Cc1cnc(Nc2ccc(OCCN3CCCC3)c(F)c2)nc1Nc1cc(NS(=O)(=O)C(C)(C)C)ncn1 [MA10-176, N-(6-((2-((3-fluoro-4-(2-(pyrrolidin-1-yl)ethoxy)phenyl)amino)-5-methylpyrimidin-4-yl)amino)pyrimidin-4-yl)-2-methylpropane-2-sulfonamide] | 1.4 °C |
| Cc1cnc(Nc2cc(F)ncn2)nc1Nc1ccc(Cl)c(NS(=O)(=O)C(C)(C)C)c1 [PN2-064, N-(2-Chloro-5-((2-((6-fluoropyrimidin-4-yl)amino)-5-methylpyrimidin-4-yl)amino)phenyl)-2-methylpropane-2-sulfonamide] | 1.1 °C |
| Cc1cnc(Nc2ccc(C3CCN(C)CC3)cc2)cc1Nc1cccc(NS(=O)(=O)C(C)(C)C)c1 [SY3-030, 2-Methyl-N-(3-((5-methyl-2-((4-(1-methylpiperidin-4-yl)phenyl)amino)pyridin-4-yl)amino)phenyl)propane-2-sulfonamide] | 6.3 °C |
| Cc1cnc(Nc2ccc(C3CCN(C)CC3)c(F)c2)nc1Nc1ncc2ccn(S(=O)(=O)C(C)(C)C)c2n1 [MA11-003, N4-(7-(tert-butylsulfonyl)-7H-pyrrolo[2,3-d]pyrimidin-2-yl)-N2-(3-fluoro-4-(1-methylpiperidin-4-yl)phenyl)-5-methylpyrimidine-2,4-diamine] | 8.0 °C |
| Cc1cnc(Nc2cc(F)c(C3CCN(C)CC3)cn2)nc1Nc1cccc(NS(=O)(=O)C(C)(C)C)c1 [PN2-103, N-(3-((2-((4-Fluoro-5-(1-methylpiperidin-4-yl)pyridin-2-yl)amino)-5-methylpyrimidin-4-yl)amino)phenyl)-2-methylpropane-2-sulfonamide] | 12.4 °C |
| Cc1cnc(Nc2cc(F)c(C3CCN(C)CC3)cn2)nc1Nc1ccc2ccn(S(=O)(=O)C(C)(C)C)c2n1 [MA10-149, N4-(1-(tert-butylsulfonyl)-1H-pyrrolo[2,3-b]pyridin-6-yl)-N2-(4-fluoro-5-(1-methylpiperidin-4-yl)pyridin-2-yl)-5-methylpyrimidine-2,4-diamine] | 6.2 °C |
| Cc1cnc(Nc2cc(F)c(C3CCN(C)CC3)cn2)nc1Nc1cc(NS(=O)(=O)C(C)(C)C)ncn1 [MA10-178, N-(6-((2-((4-fluoro-5-(1-methylpiperidin-4-yl)pyridin-2-yl)amino)-5-methylpyrimidin-4-yl)amino)pyrimidin-4-yl)-2-methylpropane-2-sulfonamide] | 2.8 °C |
| Cc1cnc(Nc2ccc(N3CCN(C)CC3)cn2)nc1Nc1ccc(Cl)c(NS(=O)(=O)C(C)(C)C)c1 [PN2-091, N-(2-Chloro-5-((5-methyl-2-((5-(4-methylpiperazin-1-yl)pyridin-2-yl)amino)pyrimidin-4-yl)amino)phenyl)-2-methylpropane-2-sulfonamide] | 11.5 °C |
| Cc1cnc(Nc2ccc(C3CCN(C)CC3)c(F)n2)nc1Nc1cc(NS(=O)(=O)C(C)(C)C)ncn1 [MA10-179, N-(6-((2-((6-fluoro-5-(1-methylpiperidin-4-yl)pyridin-2-yl)amino)-5-methylpyrimidin-4-yl)amino)pyrimidin-4-yl)-2-methylpropane-2-sulfonamide] | 1.4 °C |
| Cc1cnc(Nc2ccc(C3CCN(C)CC3)c(F)c2)nc1Nc1ccc2ccn(S(=O)(=O)C(C)(C)C)c2n1 [MA10-148, N4-(1-(Tert-butylsulfonyl)-1H-pyrrolo[2,3b]pyridin-6-yl)-N2-(3-fluoro-4-(1-methylpiperidin-4-yl)phenyl)-5-methylpyrimidine-2,4-diamine] | 7.6 °C |
